Experimental data taken from patent US10023590B2, “Substituted pyridine compounds having herbicidal activity” (BASF SE, priority 2014, dated 2018).

Experiments:
Assay type in all cases: in vivo
Setaria faberi = assay: Greenhouse post-emergence herbicidal activity, SETFA; settings: 2 kg/ha, scale 0 to 100
Excerpt: (§1) The culture containers used were plastic flowerpots containing loamy sand with approximately 3.0% of humus as the substrate. The seeds of the test plants were sown separately for each species.
(§2) For the post-emergence treatment, the test plants were first grown to a height of 3 to 15 cm, depending on the plant habit, and only then treated with the active ingredients which had been suspended or emulsified in water. For this purpose, the test plants were either sown directly and grown in the same containers, or they were first grown separately as seedlings and transplanted into the test containers a few days prior to treatment.
(§3) Depending on the species, the plants were kept at 10-25° C. or 20-35° C., respectively.
(§4) The test period extended over 2 to 4 weeks. During this time, the plants were tended, and their response to the individual treatments was evaluated.
(§5) Evaluation was carried out using a scale from 0 to 100. 100 means no emergence of the plants, or complete destruction of at least the aerial moieties, and 0 means no damage, or normal course of growth. A good herbicidal activity is given at values of at least 70 and a very good herbicidal activity is given at values of at least 85.

Oryza sativa = assay: Greenhouse post-emergence herbicidal activity on crop ORYSA (rice)
Outline: (§6)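 Post-emergence greenhouse test: plants in loamy sand (~3.0% humus) grown to 3-15 cm, then treated with active ingredient suspended or emulsified in water. Kept at 10-25° C or 20-35° C depending on species for 2 to 4 weeks; damage scored 0 (none) to 100 (complete destruction of aerial parts).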

Cirsium arvense = assay: Greenhouse post-emergence herbicidal activity, CIRAR; settings: CIRAR; for pest or weed control at 125 g/ha: 0.125 kg/ha
Excerpt: as §1, §2, §3, §4, §5

Kochia scoparia = assay: Greenhouse post-emergence herbicidal activity, KCHSC; settings: scale 0 to 100
Excerpt: as §1, §2, §3, §4, §5

Amaranthus retroflexus = assay: Greenhouse post-emergence herbicidal activity, AMARE; settings: AMARE; for pest or weed control at 2000 g/ha: 2 kg/ha, scale 0 to 100, read-out: Herbicidal activity
Outline: as §6

Digitaria sanguinalis = assay: Greenhouse post-emergence herbicidal activity, DIGSA; settings: scale 0 to 100
Excerpt: as §1, §2, §3, §4, §5

Zea mays = assay: Greenhouse post-emergence herbicidal activity on crop ZEAMX (corn, maize); parameters: key: 0 = no damage/normal growth, 100 = no emergence or complete destruction
Outline: as §6

Chenopodium album = assay: Greenhouse post-emergence herbicidal activity, CHEAL; settings: scale 0 to 100; for pest or weed control at 31 g/ha: 0.031 kg/ha; for pest or weed control at 63 g/ha: 0.063 kg/ha; for pest or weed control at 125 g/ha: 0.125 kg/ha; for pest or weed control at 250 g/ha: 0.25 kg/ha
Outline: as §6

Stellaria media = assay: Greenhouse post-emergence herbicidal activity, STEME; settings: scale 0 to 100
Excerpt: as §1, §2, §3, §4, §5

Polygonum persicaria = assay: Greenhouse post-emergence herbicidal activity, POLPE; settings: 0.063 kg/ha, scale 0 to 100
Excerpt: as §1, §2, §3, §4, §5

Abutilon theophrasti = assay: Greenhouse post-emergence herbicidal activity, ABUTH; settings: ABUTH
Excerpt: as §1, §2, §3, §4, §5

Setaria viridis = assay: Greenhouse post-emergence herbicidal activity, SETVI; settings: 2 kg/ha, scale 0 to 100
Excerpt: as §1, §2, §3, §4, §5

Veronica arvensis = assay: Greenhouse post-emergence herbicidal activity, VERAR; settings: scale 0 to 100
Excerpt: as §1, §2, §3, §4, §5

Ambrosia artemisiifolia = assay: Greenhouse post-emergence herbicidal activity, AMBEL; settings: scale 0 to 100
Excerpt: as §1, §2, §3, §4, §5

Echinocloa crus-galli = assay: Greenhouse post-emergence herbicidal activity, ECHCG; settings: Echinochloa crus-galli, ECHCG; for pest or weed control at 2000 g/ha: 2 kg/ha, scale 0 to 100, read-out: Herbicidal activity
Outline: as §6

Ipomoea hederacea = assay: Greenhouse post-emergence herbicidal activity, IPOHE; settings: 0.031 kg/ha, scale 0 to 100
Excerpt: as §1, §2, §3, §4, §5

Erigeron canadensis = assay: Greenhouse post-emergence herbicidal activity, ERICA
Excerpt: as §1, §2, §3, §4, §5

[1] = ORYSA (rice, crop), 0.031 kg/ha, scale 0 to 100
[2] = ORYSA (rice, crop), 0.063 kg/ha, scale 0 to 100
[3] = ZEAMX (corn, crop), 0.031 kg/ha, scale 0 to 100
[4] = ZEAMX (corn, crop), 0.063 kg/ha, scale 0 to 100
[5] = ZEAMX (corn, crop), 0.125 kg/ha, scale 0 to 100
[6] = ORYSA (rice, crop), 0.125 kg/ha, scale 0 to 100
[7] = ORYSA (rice, crop), 0.25 kg/ha, scale 0 to 100

| SMILES | Herbicidal activity (Oryza sativa; [1]) | Herbicidal activity (Oryza sativa; [2]) | pest or weed control at 125 g/ha (Cirsium arvense; scale 0 to 100) | Herbicidal activity (Kochia scoparia; 0.031 kg/ha) | Herbicidal activity (Kochia scoparia; 0.063 kg/ha) | pest or weed control at 31 g/ha (Amaranthus retroflexus; 0.031 kg/ha, scale 0 to 100) | pest or weed control at 63 g/ha (Amaranthus retroflexus; 0.063 kg/ha, scale 0 to 100) | pest or weed control at 125 g/ha (Amaranthus retroflexus; 0.125 kg/ha, scale 0 to 100) | pest or weed control at 2000 g/ha (Amaranthus retroflexus) | Herbicidal activity (Zea mays; [3]) | Herbicidal activity (Zea mays; [4]) | Herbicidal activity (Zea mays; [5]) | pest or weed control at 31 g/ha (Chenopodium album) | pest or weed control at 63 g/ha (Chenopodium album) | pest or weed control at 125 g/ha (Chenopodium album) | pest or weed control at 250 g/ha (Chenopodium album) | Herbicidal activity (Oryza sativa; [6]) | Herbicidal activity (Oryza sativa; [7]) | Herbicidal activity (Stellaria media; 0.125 kg/ha) | Herbicidal activity (Ambrosia artemisiifolia; 0.063 kg/ha) | other results |
| --- | --- | --- | --- | --- | --- | --- | --- | --- | --- | --- | --- | --- | --- | --- | --- | --- | --- | --- | --- | --- | --- |
| CS(=O)(=O)Nc1ccc(Cl)c(C2=C(O)c3ncccc3CS2(=O)=O)c1Cl [I-5, N-[2,4-dichloro-3-(8-hydroxy-6,6-dioxo-5H-thiopyrano[4,3-b]pyridin-7-yl)phenyl]methanesulfonamide] | 25 | 35 | 90% | 90 | 95 | 75% | 95% | 95% | 98% | 0 | 0 | 0 |  |  |  |  |  |  |  |  | Herbicidal activity (Setaria faberi): 100; pest or weed control at 31 g/ha (Cirsium arvense; 0.031 kg/ha, scale 0 to 100): 75%; Herbicidal activity (Digitaria sanguinalis; 0.063 kg/ha): 90; Herbicidal activity (Digitaria sanguinalis; 0.125 kg/ha): 95 |
| CN(c1ccc(Cl)c(C2=C(O)c3ncccc3C(C)(C)S2(=O)=O)c1Cl)S(C)(=O)=O [I-7, N-[2,4-dichloro-3-(8-hydroxy-5,5-dimethyl-6,6-dioxo-thiopyrano[4,3-b]pyridin-7-yl)phenyl]-N-methyl-methanesulfonamide] | 0 | 0 |  |  |  |  |  | 90% |  | 0 | 0 | 20 | 95% | 85% | 98% | 100% | 10 | 15 | 100 |  | Herbicidal activity (Stellaria media; 0.063 kg/ha): 100; Herbicidal activity (Stellaria media; 0.25 kg/ha): 100; Herbicidal activity (Polygonum persicaria): 80; pest or weed control at 250 g/ha (Abutilon theophrasti; 0.25 kg/ha, scale 0 to 100): 100% |
| Cc1c(C2=C(O)c3ncccc3C(C)(C)S2(=O)=O)cccc1N(C)S(C)(=O)=O [I-14, N-[3-(8-hydroxy-5,5-dimethyl-6,6-dioxo-thiopyrano[4,3-b]pyridin-7-yl)-2-methyl-phenyl]-N-methyl-methanesulfonamide] | 0 | 0 |  | 95 | 100 |  |  |  | 100% | 15 | 20 | 35 | 98% |  | 100% |  | 10 |  | 100 | 100 | Herbicidal activity (Setaria viridis): 100; Herbicidal activity (Veronica arvensis; 0.031 kg/ha): 100; Herbicidal activity (Veronica arvensis; 0.063 kg/ha): 100; Herbicidal activity (Ambrosia artemisiifolia; 0.125 kg/ha): 100; pest or weed control at 2000 g/ha (Echinocloa crus-galli): 98% |
| CN(c1cccc(C2=C(OC(=O)C(C)(C)C)c3ncccc3C(C)(C)S2(=O)=O)c1Cl)S(C)(=O)=O [I-16, [7-[2-chloro-3-[methyl(methylsulfonyl)amino]phenyl]-5,5-dimethyl-6,6-dioxo-thiopyrano[4,3-b]pyridin-8-yl] 2,2-dimethylpropanoate] | 0 | 0 |  |  |  | 75% |  | 90% |  | 0 | 0 | 0 | 95% | 98% | 98% | 100% | 0 | 0 |  | 100 | Herbicidal activity (Ipomoea hederacea): 70; pest or weed control at 63 g/ha (Cirsium arvense; 0.063 kg/ha, scale 0 to 100, read-out: Herbicidal activity): 85%; Herbicidal activity (Veronica arvensis; 0.25 kg/ha): 100; Herbicidal activity (Ambrosia artemisiifolia; 0.125 kg/ha): 100; Herbicidal activity (Ambrosia artemisiifolia; 0.25 kg/ha): 100 |
| CN(c1c(Cl)ccc(C2=C(O)c3ncccc3C(C)(C)S2(=O)=O)c1Cl)S(=O)(=O)CC1CC1 [I-21, 1-cyclopropyl-N-[2,6-dichloro-3-(8-hydroxy-5,5-dimethyl-6,6-dioxo-thiopyrano[4,3-b]pyridin-7-yl)phenyl]-N-methyl-methanesulfonamide] | 0 | 30 | 100% |  |  | 98% | 98% | 100% | 100% |  |  |  | 95% | 98% |  |  | 45 |  |  |  | Herbicidal activity (Erigeron canadensis; 0.063 kg/ha, scale 0 to 100): 100; Herbicidal activity (Erigeron canadensis; 0.125 kg/ha, scale 0 to 100): 100; pest or weed control at 31 g/ha (Echinocloa crus-galli; 0.031 kg/ha, scale 0 to 100): 98%; pest or weed control at 2000 g/ha (Echinocloa crus-galli): 100%; pest or weed control at 2000 g/ha (Abutilon theophrasti; 2 kg/ha, scale 0 to 100, read-out: Herbicidal activity): 100% |
| CN(c1c(Cl)ccc(C2=C(O)c3ncccc3C(C)(C)S2(=O)=O)c1C(F)(F)F)S(C)(=O)=O [I-32, N-[6-chloro-3-(8-hydroxy-5,5-dimethyl-6,6-dioxo-thiopyrano[4,3-b]pyridin-7-yl)-2-(trifluoromethyl)phenyl]-N-methyl-methanesulfonamide] |  |  |  |  |  |  |  |  |  |  |  |  |  |  |  |  |  |  |  |  | Herbicidal activity (Oryza sativa; crop ORYSA (rice), application rate 0.25 kg/ha): 30; Herbicidal activity (Erigeron canadensis; application rate 0.25 kg/ha): 100; pest or weed control at 31 g/ha (Amaranthus retroflexus; application rate 0.031 kg/ha): 98%; pest or weed control at 63 g/ha (Amaranthus retroflexus; application rate 0.063 kg/ha): 98%; pest or weed control at 125 g/ha (Amaranthus retroflexus; application rate 0.125 kg/ha): 98%; pest or weed control at 250 g/ha (Amaranthus retroflexus; application rate 0.25 kg/ha): 98%; pest or weed control at 31 g/ha (Echinocloa crus-galli; application rate 0.031 kg/ha): 90%; pest or weed control at 63 g/ha (Echinocloa crus-galli; application rate 0.063 kg/ha): 98%; pest or weed control at 125 g/ha (Echinocloa crus-galli; application rate 0.125 kg/ha): 95%; Herbicidal activity (Zea mays; crop ZEAMX (corn, maize), application rate 0.031 kg/ha): 5; Herbicidal activity (Zea mays; crop ZEAMX (corn, maize), application rate 0.063 kg/ha): 5; Herbicidal activity (Zea mays; crop ZEAMX (corn, maize), application rate 0.125 kg/ha): 15; pest or weed control at 31 g/ha (Abutilon theophrasti; application rate 0.031 kg/ha): 95%; pest or weed control at 63 g/ha (Abutilon theophrasti; application rate 0.063 kg/ha): 90%; pest or weed control at 125 g/ha (Abutilon theophrasti; application rate 0.125 kg/ha): 95%; pest or weed control at 250 g/ha (Abutilon theophrasti; application rate 0.25 kg/ha): 98% |
